# According to patent US11607424B2, “Carbon-rich micro-particles for protecting bees and overcoming colony collapse disorder” (WASHINGTON STATE UNIVERSITY, priority 2018, dated 2023):
# Test system: honey bees
# Experiment: Detoxification effects: caged adult bees chronically exposed orally to 50 ppb Thiamethoxam with or without CMPs
# Format: in vivo
# Details: 50 ppb TXM, absence of CMPs
# Description: A total of 70 plastic cages (15 cm×8 cm×10 cm) with a removable cover were used FIGS. 4A and B). Adult honey bees were collected from broods of at least seven colonies and homogenously distributed in all control and experimental cages to eliminate possible colony-level effects on the results. Cages were loaded with 100 bees per cage and then incubated in complete darkness at 30° C. and 70% relative humidity (RH). Bees were fed a sugar solution (50% w/v). The CMPs were administered at a concentration of 1% w/v in the sugar solution and delivered to experimental cages on day 2. Stock solutions of Thiamethoxam (TXM) (3-[(2-Chloro-1,3-thiazol-5-yl)methyl]-5-methyl-N-nitro-1,3,5-oxadiazinan-4-imine) were prepared from analytical grade TMX (Sigma Aldrich 37924-100MG-R) at concentration of 30 mg/L in E-pure water, and maintained at 4° C. The pesticide was administered at a concentration of 50 ppb on day 2. […]
# Treatments were arranged in a completely randomized design. […] The mortality rates and feed consumption were recorded daily. Production and morphology of bee feces (frass) were assessed to ensure that CMPs passed through the bees digestive system with no harm. Bee behavior and activity (i.e. number of falls per 30 seconds, inability to climb, etc.) were also assessed. Dispensability of the CMPs in the sugar solutions were also assessed during the experiments. […]
compound,measurement,value
"CN1COCN(Cc2cnc(Cl)s2)C1=N[N+](=O)[O-] [TXM, 3-[(2-Chloro-1,3-thiazol-5-yl)methyl]-5-methyl-N-nitro-1,3,5-oxadiazinan-4-imine]",bee deaths (daily die-off) on day 2,2.5%
same,bee deaths (daily die-off) on day 5,21%
